Experimental data: patent US20160000762A1, “IMPROVING COGNITIVE FUNCTION” (THE REGENTS OF THE UNIVERSITY OF CALIFORNIA, priority 2013, published 2016)

Columns and labels:
APP = molecular target: T1, APP (Rattus norvegicus, UniProt P08592); experiment: Cell surface biotinylation, primary cortical neurons; format: cell-based; conditions: 5 μM, 24 h
T1 construct: BTA-EG4 increased endogenous cell surface APP levels in primary cortical neurons; endogenous in cells; host or cells: primary cortical neurons
Method: Cell surface biotinylation. COS7 cells were transiently transfected with APP for 24 hr in OPTI-MEM® containing 10% fetal bovine serum, and then treated with BTA-EG4 or control for 24 hr. After 24 hr, surface proteins were biotin labeled, immobilized with NeutrAvidin™ Gel and incubated 1 h with SDS-PAGE sample buffer, including 50 mM DTT, as described previously (Minami et al., 2010). Eluates were analyzed for APP by immunoblotting.
It is well known that the majority of a-secretase activity occurs on the cell surface, while β- and γ-secretase activity occurs primarily in the early and late endosomes (Huse et al., 2000; Reiss et al., 2006). Thus, if APP is present at the cell's surface, it is preferentially cleaved by α-secretase, resulting in decreased Aβ production. Therefore, we examined whether BTA-EG4 regulates cell surface expression of APP. To test this initially, COS7 cells were transfected with human APP and treated with BTA-EG4 (5 μM) or control (10% DMSO) for 24 h. […] Furthermore, BTA-EG4 increased endogenous cell surface APP levels in primary cortical neurons following 24 h of BTA-EG4 (5 μM) treatment compared with control (10% DMSO) treatment (FIG. 1I). In an alternative approach to examine the effect of BTA-EG4 on cell surface APP expression, we conducted live cell-surface immunostaining in primary hippocampal neurons.

dendritic spines = experiment: Golgi staining, dendritic spines of wild-type mice; format: in vivo; conditions: 30 mg/kg, 2 weeks
Method: Golgi staining and morphological analysis of dendritic spines. To analyze dendritic spine density and morphology in brain, FD RAPID GOLGISTAIN KIT™ (FD NeuroTechnologies, Ellicott City, Md., USA) was used. Dissected mouse brains were immersed in Solution A and B for 2 weeks in dark conditions at room temperature and transferred into Solution C for 24 h at 4° C. Brains were sliced using a VT1000S Vibratome (Leica, Bannockburn, Ill., USA) at 150 μm thickness. Dendritic images were acquired by Axioplan 2 (Zeiss, Oberkochen, Germany) under brightfield microscopy. Spine width, length, and linear density of cortical layers II/III and CA1 of hippocampus were measured using Scion image software (Scion Corporation, Frederick, Md., USA). Images were coded, and dendritic spines counted in a blinded manner. Spines from 0.2 to 2 μm in length were included for analysis. All morphological analysis was done blind to experimental conditions.

Ras [1] = experiment: GST-Raf1-RBD pulldown of active Ras, APP knock-out mice; format: in vivo
Method: (§1) GST-pull-down assay. To measure levels of active Ras, brain lysate homogenized with Ral buffer (25 mM Tris-HCl, pH 7.4, 250 mM NaCl, 0.5% NP40, 1.25 mM MgCl2, and 5% glycerol) from APP transgenic, APP knockout, or wild-type mice was incubated with GST-Raf-RBD purified protein coupled with GLUTATHIONE SEPHAROSE™ (Amersham) overnight at 4° C. After 24 hours, pellets were washed with Ral buffer and western blotting was conducted with anti-Ras.
Next, we investigated whether BTA-EG4 can alter Ras activity in APP KO mice by injecting control or BTA-EG4 for 2 weeks. […] Further, we examined the effect of BTA-EG4 on downstream Ras signaling in the presence or absence of APP. For this experiment, primary hippocampal neurons were transfected with GFP and APP shRNA or APP, treated with BTA-EG4 or control, and then immunostained against p-ERK or p-CREB.

Ras [2] = experiment: GST-Raf1-RBD pulldown of active Ras, brain lysates of wild-type mice; format: in vivo; conditions: 30 mg/kg daily for 2 weeks
Method: as §1
We next investigated the molecular mechanism by which BTA-EG4 may alter dendritic spine formation. Ras, a small GTPase, is involved in dendritic spine formation and synaptic delivery of AMPA receptors (Zhu et al., 2002; Lee et al., 2011). Moreover, abnormal Ras signaling is associated with neurodegenerative disease, causing cognitive impairments and learning deficits (Stornetta and Zhu, 2011). Thus, we initially investigated the effect of BTA-EG4 on Ras signaling by treating primary hippocampal neurons with BTA-EG4 (5 μM) or control for 24 hrs. […] Further, levels of active Ras were elevated following BTA-EG4 treatment (5 μM) in primary cortical neurons (FIG. 7C) and following BTA-EG4 treatment (30 mg/kg) in wild-type mice (FIG. 7D). We also examined whether BTA-EG4 can alter the activity of downstream Ras signaling proteins, including p-ERK and p-CREB.

[3] = Morris water maze, wild-type mice; format: in vivo, wild-type (B6) mice
Description: Morris water maze. To examine the effects of BTA-EG4 on cognitive performance, we injected wild-type (B6) mice with BTA-EG4 daily for one week, and then began behavior testing. We continued daily injections for another week, for a total treatment course of two weeks. The Morris water maze task included training mice to locate a submerged, hidden platform using extramaze visuospatial cues. This system consists of a large, white circular pool with a Plexiglas platform painted white and submerged below the surface of the water, made opaque by the addition of white non-toxic paint. During training, the platform was hidden 14 inches from the side wall in one quadrant of the maze. The animals were gently placed at random into one of the four quadrants, separated by 90°, and facing the wall. The time required (latency) to locate the hidden platform was recorded by a blinded observer and tracked using TOPSCAN, and was limited to 90 sec. Animals failing to find the platform within 90 sec were assisted to the platform. Animals were allowed to remain on the platform for 15 sec on the first trial and 10 sec on subsequent trials. 24 hrs after the final learning trial, a probe trial of 90 sec was given. We recorded the percentage of time spent in the quadrant where the platform was previously located. As a control experiment, we tested motor impairment or visual discriminative ability. The animals were required to locate a clearly visible black platform (placed in a different location), raised above the water surface, at least 12 hrs after the last trial.

[4] = 30 mg/kg i.p., probe trial day 5

T1 sequence (P08592 18-770): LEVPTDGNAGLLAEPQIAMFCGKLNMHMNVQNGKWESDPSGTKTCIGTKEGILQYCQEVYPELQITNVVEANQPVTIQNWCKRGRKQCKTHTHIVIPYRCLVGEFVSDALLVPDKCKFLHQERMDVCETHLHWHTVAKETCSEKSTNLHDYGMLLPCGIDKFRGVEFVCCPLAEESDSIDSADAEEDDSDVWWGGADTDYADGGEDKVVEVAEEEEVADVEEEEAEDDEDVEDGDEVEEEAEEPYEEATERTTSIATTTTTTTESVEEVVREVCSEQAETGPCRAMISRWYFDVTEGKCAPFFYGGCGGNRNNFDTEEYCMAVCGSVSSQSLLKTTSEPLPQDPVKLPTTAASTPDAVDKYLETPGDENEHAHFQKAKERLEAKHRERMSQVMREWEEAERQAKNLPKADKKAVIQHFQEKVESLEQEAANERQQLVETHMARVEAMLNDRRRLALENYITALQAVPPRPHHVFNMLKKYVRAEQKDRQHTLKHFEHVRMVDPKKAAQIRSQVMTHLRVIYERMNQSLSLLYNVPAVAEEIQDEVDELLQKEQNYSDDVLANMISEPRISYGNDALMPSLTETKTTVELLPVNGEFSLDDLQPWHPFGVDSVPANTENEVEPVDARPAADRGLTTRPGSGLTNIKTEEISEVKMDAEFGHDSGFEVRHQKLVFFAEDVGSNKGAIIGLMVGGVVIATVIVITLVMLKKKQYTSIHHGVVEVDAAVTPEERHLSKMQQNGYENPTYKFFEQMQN

BTA-EG4
endogenous cell surface APP levels (APP): increased | dendritic spine density (dendritic spines; CA1 region of the hippocampus): significantly increased | dendritic spine density (dendritic spines; cortical layers II/III): significantly increased | spine morphology (spine head width and spine length) (dendritic spines; hippocampus CA1 and cortical layers II/III): did not alter | amount of active Ras (Ras [1]; 30 mg/kg i.p., 2 weeks, CTRL (C)=100±1.22%, n=5): 03.2±1.26% | Ras activity (Ras [1]; injected for 2 weeks): did not have altered | levels of active Ras (Ras [2]): elevated | escape latency during training ([3]; 30 mg/kg i.p. daily): significantly reduced | rate of platform crossing [3, 4]: significantly higher rate | time spent in the target quadrant [3, 4]: spent more time | path length to the escape platform ([3]; 30 mg/kg i.p., training trials): no difference | swim speed ([3]; 30 mg/kg i.p., CTRL=117±3.1 mm/s, p<0.01): 130±3.6 mm/s
